This is an account of results in patent US20230104936A1, “TRPML MODULATORS” (Casma Therapeutics, Inc., priority 2019, published 2023).

The subject of this assay is TFEB. As to the kind of experiment: TFEB nuclear translocation assay, HeLa wt cells. Format: cell-based. Particulars: 2 hrs compound treatment, Table 1 does not say HeLa wt or TRPML1 KO. In a few lines: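 TFEB translocation into the nucleus of HeLa wt cells is scored by high-content immunofluorescence after 2 hrs of compound treatment at 37° C, reported as AC50.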

In general, AC50 refers to the concentration at which the activity in the assay is half-maximal. Read a high AC50 as weaker potency. Compound `CN(C)S(=O)(=O)c1ccc(S(=O)(=O)Nc2ccccc2N2CCC3(CCOCC3)CC2)cc1` [Compound A-524, N1,N1-dimethyl-N4-(2-{3-oxa-9-azaspiro[5.5]undecan-9-yl}phenyl)benzene-1,4-disulfonamide] had an AC50 (Homo sapiens, HeLa, 2 h) of at most 2 µM.

For the compound `COCCOCC1(C)CCN(c2ccccc2NS(=O)(=O)c2ccc(S(=O)(=O)N(C)C)cc2)CC1` [Compound A-518, N4-(2-{4-[(2-methoxyethoxy)methyl]-4-methylpiperidin-1-yl}phenyl)-N1,N1-dimethylbenzene-1,4-disulfonamide], the AC50 (Homo sapiens, HeLa, 2 h) is at most 2 µM.

Under “Homo sapiens, HeLa, 2 h”, `COc1ccc(S(=O)(=O)Nc2ccccc2N2CC(N(C)c3ccc(F)cc3F)C2)cc1` [Compound A-188, N-(2-{3-[(2,4-difluorophenyl)(methyl)amino]azetidin-1-yl}phenyl)-4-methoxybenzene-1-sulfonamide] returned an AC50 of at least 10 µM.

For the setting “Homo sapiens, HeLa, 2 h”, `COCC1(C)CCN(c2ccccc2NS(=O)(=O)c2ccc(C)c(F)c2)CC1` [Compound A-617, 3-fluoro-N-{2-[4-(methoxymethyl)-4-methylpiperidin-1-yl]phenyl}-4-methylbenzene-1-sulfonamide] yielded an AC50 of 2.01 to 8 µM.

Turning to `C[C@@H]1CN(CC2CCN(c3c(F)cccc3[C@@H](C)S(=O)(=O)c3ccc(S(=N)(=O)N(C)C)cc3)CC2)C[C@H](C)O1` (single isomer, unassigned) [Compound A-902], the half-maximal activity concentration (AC50) (Homo sapiens, HeLa, 2 h) was at least 10 µM.

In turn, `O=S(=O)(Nc1cc(Cl)ccc1N1CCOCC1)c1ccc(S(=O)(=O)C(F)F)cc1` [Compound A-277, N-[5-chloro-2-(morpholin-4-yl)phenyl]-4-difluoromethanesulfonylbenzene-1-sulfonamide] gave an AC50 (Homo sapiens, HeLa, 2 h) of at least 10 µM.

The compound `CC(c1cccc(F)c1N1CCC(CN2C[C@@H](C)O[C@H](C)C2)CC1)S(=O)(=O)c1ccc(S(=O)(=O)N(C)C)cc1` (stereo partly drawn) [Compound A-859, 4-{1-[2-(4-{[(2R,6R)-2,6-dimethylmorpholin-4-yl]methyl}piperidin-1-yl)-3-fluorophenyl]ethanesulfonyl}-N,N-dimethylbenzene-1-sulfonamide] had an AC50 (Homo sapiens, HeLa, 2 h) of at most 2 µM.

`CN(C)S(=O)(=O)c1ccc(S(=O)(=O)Nc2ccccc2N2C3CCC2CN(C(=O)C(C)(C)C)C3)cc1` [Compound A-354, N4-{2-[3-(2,2-dimethylpropanoyl)-3,8-diazabicyclo[3.2.1]octan-8-yl]phenyl}-N1,N1-dimethylbenzene-1,4-disulfonamide] came in with a half-maximal activity concentration (AC50) (Homo sapiens, HeLa, 2 h) of at least 10 µM.

With `NS(=O)(=O)c1ccc(S(=O)(=O)Nc2ccccc2N2CCC(c3ccc(Cl)cc3F)CC2)cc1` [Compound A-482, N1-{2-[4-(4-chloro-2-fluorophenyl)piperidin-1-yl]phenyl}benzene-1,4-disulfonamide], for the setting “Homo sapiens, HeLa, 2 h”, the concentration at half-maximal activity (AC50) lay in the range of 2.01 to 8 µM.

The compound `C[C@H](c1cccc(F)c1N1CCC(F)(F)CC1)S(=O)(=O)c1ccc(S(=N)(=O)N(C)C)cc1` (single isomer, unassigned) [Compound A-890] had a half-maximal activity concentration (AC50) of 2.01 to 8 µM.

With `Cc1nn(S(=O)(=O)c2ccc(S(=O)(=O)N(C)C)cc2)cc1C1=CCN(c2ccc(Cl)cc2F)CC1` [Compound A-37, 4-({4-[1-(4-chloro-2-fluorophenyl)-1,2,3,6-tetrahydropyridin-4-yl]-3-methyl-1H-pyrazol-1-yl}sulfonyl)-N,N-dimethylbenzene-1-sulfonamide], the AC50 (Homo sapiens, HeLa, 2 h) is 2.01 to 8 µM.

`CN(C)S(=O)(=O)c1ccc(S(=O)(=O)Nc2cccc(F)c2N2CCC(N3CCC4(CCOC4)C3)CC2)cc1` (single isomer, unassigned) [Compound A-910, N1-(2-(4-(2-oxa-7-azaspiro[4.4]nonan-7-yl)piperidin-1-yl)-3-fluorophenyl)-N4,N4-dimethylbenzene-1,4-disulfonamide]: the concentration at half-maximal activity (AC50) was in the range of 2.01 to 8 µM.

In the case of `CN(C)S(=O)(=O)c1ccc(S(=O)(=O)Nc2ccccc2N2CCC3(CC2)COC(C)(C)C3)cc1` [Compound A-440, N4-(2-{3,3-dimethyl-2-oxa-8-azaspiro[4.5]decan-8-yl}phenyl)-N1,N1-dimethylbenzene-1,4-disulfonamide], the AC50 (Homo sapiens, HeLa, 2 h) was at most 2 µM.

`CN(C)S(=O)(=O)c1ccc(C(Nc2ccccc2N2CCC(c3ccc(Cl)cc3F)CC2)C(F)(F)F)cc1` (stereo not shown) [Compound A-170, 4-[1-({2-[4-(4-chloro-2-fluorophenyl)piperidin-1-yl]phenyl}amino)-2,2,2-trifluoroethyl]-N,N-dimethylbenzene-1-sulfonamide] yielded a half-maximal activity concentration (AC50) (Homo sapiens, HeLa, 2 h) of at most 2 µM.

`CN(C)S(=O)(=O)c1ccc(S(=O)(=O)Nc2cccc(N3CCC(c4ccc(Cl)cc4F)CC3)n2)cc1` [Compound A-134, N4-{6-[4-(4-chloro-2-fluorophenyl)piperidin-1-yl]pyridin-2-yl}-N1,N1-dimethylbenzene-1,4-disulfonamide] showed a concentration at half-maximal activity (AC50) (Homo sapiens, HeLa, 2 h) of at least 10 µM.

On to `Cc1noc(NS(=O)(=O)c2ccc(S(=O)(=O)N(C)C)cc2)c1C1=CCN(c2ccc(Cl)cc2F)CC1` [Compound A-65, N1-(4-(1-(4-chloro-2-fluorophenyl)-1,2,3,6-tetrahydropyridin-4-yl)-3-methylisoxazol-5-yl)-N4,N4-dimethylbenzene-1,4-disulfonamide], for which the half-maximal activity concentration (AC50) (Homo sapiens, HeLa, 2 h) was at least 10 µM.

For the compound `CN(C)S(=O)(=O)c1ccc(S(=O)(=O)Nc2ccccc2N2CCN(C(=O)C(O)c3ccccc3)CC2)cc1` (stereo not shown) [Compound A-335, N4-{2-[4-(2-hydroxy-2-phenylacetyl)piperazin-1-yl]phenyl}-N1,N1-dimethylbenzene-1,4-disulfonamide], the AC50 (Homo sapiens, HeLa, 2 h) is at least 10 µM.

Regarding `Cc1nc(C)c(S(=O)(=O)Nc2ccccc2N2CCC(CN3C[C@@H](C)O[C@@H](C)C3)CC2)s1` [Compound A-756, N-[2-(4-{[(2R,6S)-2,6-dimethylmorpholin-4-yl]methyl}piperidin-1-yl)phenyl]-2,4-dimethyl-1,3-thiazole-5-sulfonamide], the AC50 (Homo sapiens, HeLa, 2 h) was 2.01 to 8 µM.

For the setting “Homo sapiens, HeLa, 2 h”, `CN(C)S(=O)(=O)c1ccc(S(=O)(=O)Nc2cccc(C(F)F)c2N2CCC3(CC2)COC(C)(C)C3)cc1` [Compound A-753, N4-[3-(difluoromethyl)-2-{3,3-dimethyl-2-oxa-8-azaspiro[4.5]decan-8-yl}phenyl]-N1,N1-dimethylbenzene-1,4-disulfonamide] displayed an AC50 of at most 2 µM.

`CN(C)S(=O)(=O)c1ccc(S(=O)(=O)Nc2ccccc2N2CCC(O)(c3cc(Br)ncc3F)CC2)cc1` [Compound A-210, N4-{2-[4-(2-bromo-5-fluoropyridin-4-yl)-4-hydroxypiperidin-1-yl]phenyl}-N1,N1-dimethylbenzene-1,4-disulfonamide] had a half-maximal activity concentration (AC50) (Homo sapiens, HeLa, 2 h) of at most 2 µM.

Take `CC(c1cc(Cl)cnc1N1CCC(CN2CCC(F)(F)CC2)CC1)S(=O)(=O)c1ccc2c(c1)CCC2` (single isomer, unassigned) [Compound A-994, 5-chloro-2-(4-((4,4-difluoropiperidin-1-yl)methyl)piperidin-1-yl)-3-(1-((2,3-dihydro-1H-inden-5-yl)sulfonyl)ethyl)pyridine]: the AC50 was at most 2 µM.

Turning to `COCCOCCOCC1(C)CCN(c2ccccc2NS(=O)(=O)c2ccc(S(=O)(=O)N(C)C)cc2)CC1` [Compound A-519, N4-[2-(4-{[2-(2-methoxyethoxy)ethoxy]methyl}-4-methylpiperidin-1-yl)phenyl]-N1,N1-dimethylbenzene-1,4-disulfonamide], under “Homo sapiens, HeLa, 2 h”, the AC50 is at most 2 µM.

As for `CN1CC2(CCN(c3ccccc3NS(=O)(=O)c3ccc(S(=O)(=O)N(C)C)cc3)C(=O)C2)c2ccc(F)cc21` (stereo not shown) [Compound A-472, N4-(2-{6-fluoro-1-methyl-2′-oxo-1,2-dihydrospiro[indole-3,4′-piperidin]-1′-yl}phenyl)-N1,N1-dimethylbenzene-1,4-disulfonamide], the concentration at half-maximal activity (AC50) (Homo sapiens, HeLa, 2 h) was at most 2 µM.

For the setting “Homo sapiens, HeLa, 2 h”, `O=S(=O)(Nc1cccc(Cl)c1N1CCOCC1)c1ccc(C2CC2)cc1` [Compound A-391, N-[3-chloro-2-(morpholin-4-yl)phenyl]-4-cyclopropylbenzene-1-sulfonamide] registered a half-maximal activity concentration (AC50) of 2.01 to 8 µM.

For `CN(C)S(=O)(=O)c1ccc(S(=O)(=O)Nc2ccccc2N2CCC(C)(c3ccc(F)cc3Cl)CC2)cc1` [Compound A-205, N4-{2-[4-(2-chloro-4-fluorophenyl)-4-methylpiperidin-1-yl]phenyl}-N1,N1-dimethylbenzene-1,4-disulfonamide], the AC50 (Homo sapiens, HeLa, 2 h) is at most 2 µM.

For the setting “Homo sapiens, HeLa, 2 h”, `COCC1(C)CCN(c2ccccc2NS(=O)(=O)c2ccc3c(c2)COCC3)CC1` [Compound A-625, N-{2-[4-(methoxymethyl)-4-methylpiperidin-1-yl]phenyl}-3,4-dihydro-1H-2-benzopyran-7-sulfonamide] had a half-maximal activity concentration (AC50) of at most 2 µM.

Take `COCC(C)N1CCN(c2ccccc2NS(=O)(=O)c2ccc(S(=O)(=O)N(C)C)cc2)CC1` (stereo not shown) [Compound A-418, N4-{2-[4-(1-methoxypropan-2-yl)piperazin-1-yl]phenyl}-N1,N1-dimethylbenzene-1,4-disulfonamide]: the half-maximal activity concentration (AC50) (Homo sapiens, HeLa, 2 h) was 2.01 to 8 µM.

In turn, `O=S(=O)(Nc1cccc(Cl)c1N1CCOCC1)c1ccccc1C1CC1` [Compound A-392, N-[3-chloro-2-(morpholin-4-yl)phenyl]-2-cyclopropylbenzene-1-sulfonamide] came in with a concentration at half-maximal activity (AC50) (Homo sapiens, HeLa, 2 h) of 2.01 to 8 µM.

The compound `C[C@@H]1COC[C@@H](C)N1CC1CCN(c2c(F)cccc2NS(=O)(=O)c2ccc(S(=N)(=O)N(C)C)cc2)CC1` (stereo partly drawn) [Compound A-835, N-(2-(4-(((3S,5S)-3,5-dimethylmorpholino)methyl)piperidin-1-yl)-3-fluorophenyl)-4-(N,N-dimethylsulfamidimidoyl)benzenesulfonamide] showed an AC50 (Homo sapiens, HeLa, 2 h) of at most 2 µM.

Regarding `CN(C)S(=O)(=O)c1ccc(S(=O)(=O)Nc2ccccc2N2CCN(C(=O)C(C)(C)F)CC2)cc1` [Compound A-432, N4-{2-[4-(2-fluoro-2-methylpropanoyl)piperazin-1-yl]phenyl}-N1,N1-dimethylbenzene-1,4-disulfonamide], the AC50 (Homo sapiens, HeLa, 2 h) lay in the range of 2.01 to 8 µM.

`CC(c1cccc(F)c1N1CCOCC1)S(=O)(=O)c1ccc2c(c1)CCS2(=O)=O` (single isomer, unassigned) [Compound A-966, 5-((1-(3-fluoro-2-morpholinophenyl)ethyl)sulfonyl)-2,3-dihydrobenzo[b]thiophene 1,1-dioxide]: the AC50 (Homo sapiens, HeLa, 2 h) was at least 10 µM.
